Read-outs that look alike come from different tables or passages of the source.
Tests used:
[1] = molecular target: biotinylated human Gal-3 (hGal-3) (Homo sapiens, UniProt P17931); assay: Competitive binding assay: biotinylated hGal-3 binding to microplate-adsorbed asialofetuin (ASF), spectrophotometric
Description: If not explicitly mentioned otherwise, the inhibition data refer to the binding of biotinylated human Gal-3 (hGal-3).
(§1) Biological Assay Evaluation of Compound Inhibitory Activity (IC50)
The inhibitory activity of compounds is determined in competitive binding assays.
Briefly, compounds are serially diluted in DMSO (working dilutions).
(§2) Plates are incubated for 3 hours at 4° C., then washed with cold assay buffer (3×50 uL), incubated for 1 hour with 25 μL/well of a streptavidin-peroxidase solution (diluted in assay buffer to 80 ng/mL) at 4° C., followed by further washing steps with assay buffer (3×50 uL). Finally, 25 μL/well of ABTS substrate is added.
(§3) The calculated IC50 values may fluctuate depending on the daily assay performance. Fluctuations of this kind are known to those skilled in the art. IC50 values from several measurements are given as mean values.

[2] = molecular target: human Gal-1 (hGal-1) (Homo sapiens, UniProt P09382); assay: Competitive binding assay: biotinylated hGal-1 binding to microplate-adsorbed asialofetuin (ASF), spectrophotometric; conditions: hGal-1 binding to asialofetuin; Table 15; R and S epimers of selected Examples also listed; read-out: IC50 (Galectin-1 inhibition)
Description: as §1
The inhibitory activity of compounds is determined in competitive binding assays. This spectrophotometric assay measures the binding of biotinylated human Gal-3 (hGal-3) or human Gal-1 (hGal-1), respectively, to a microplate-adsorbed glycoprotein, asialofetuin (ASF) (Proc Natl Acad Sci USA. 2013 Mar. 26; 110(13):5052-7.).
Briefly, compounds are serially diluted in DMSO (working dilutions). ASF-coated 384well plates are supplemented with 22.8 μL/well of biotinylated hGal-3 or hGal-1 in assay buffer (i.e. 300-1000 ng/mL biotinylated hGal-3 or hGal-1) to which 1.2 μL of compound working dilutions are added and mixed.
as §2, §3

[3] = Table 13, hGal-3, read-out: IC50 (Gal-3 inhibition)
[4] = Gal-3 inhibition, Table 5, read-out: IC50
[5] = Gal-3 inhibition, Table 4, read-out: IC50
[6] = Table 8, hGal-3, read-out: IC50 (Gal-3 inhibition)
[7] = Gal-3 inhibition, Table 3, read-out: IC50

Sequence of biotinylated human Gal-3 (hGal-3) (P17931 whole entry): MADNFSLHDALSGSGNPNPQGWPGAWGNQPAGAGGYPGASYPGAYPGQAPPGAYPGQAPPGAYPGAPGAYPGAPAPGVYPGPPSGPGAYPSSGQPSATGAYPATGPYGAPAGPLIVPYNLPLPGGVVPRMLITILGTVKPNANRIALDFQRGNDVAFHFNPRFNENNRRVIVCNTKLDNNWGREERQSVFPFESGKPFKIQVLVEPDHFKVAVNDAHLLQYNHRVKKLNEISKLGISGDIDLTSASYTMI
Sequence of human Gal-1 (hGal-1) (P09382 whole entry): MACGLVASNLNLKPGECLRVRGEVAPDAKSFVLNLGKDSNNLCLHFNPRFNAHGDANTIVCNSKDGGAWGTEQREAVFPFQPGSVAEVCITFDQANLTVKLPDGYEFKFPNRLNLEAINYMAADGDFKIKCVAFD

| Molecule | IC50 [2] | IC50 [1, 4] | further results |
| --- | --- | --- | --- |
| 1-(4,4-Difluoropiperidin-1-yl)-2-(4-hydroxy-2,2-dimethyltetrahydro-2H-pyran-4-yl)-2-(((2S,3R,4S,5R,6R)-5-hydroxy-6-(hydroxymethyl)-3-methoxy-4-(4-(3,4,5-trifluorophenyl)-1H-1,2,3-triazol-1-yl)tetrahydro-2H-pyran-2-yl)thio)ethan-1-one [Example 2.43.226.I.] | 460 nM |  | IC50 [1, 3]: 250 nM |
| 2-(1,1-Difluoro-6-hydroxyspiro[2.5]octan-6-yl)-1-(4,4-difluoropiperidin-1-yl)-2-(((2S,3R,4S,5R,6R)-5-hydroxy-6-(hydroxymethyl)-3-methoxy-4-(4-(3,4,5-trifluorophenyl)-1H-1,2,3-triazol-1-yl)tetrahydro-2H-pyran-2-yl)thio)ethan-1-one [Example 2.73.226.I.] | 150 nM |  | IC50 [1, 3]: 100 nM |
| 2-(4,4-Difluoro-1-hydroxycyclohexyl)-2-(((2S,3R,4S,5R,6R)-3,5-dihydroxy-6-(hydroxymethyl)-4-(4-(3,4,5-trifluorophenyl)-1H-1,2,3-triazol-1-yl)tetrahydro-2H-pyran-2-yl)thio)-1-(piperidin-1-yl)ethan-1-one [Example 2.44.208.] | 210 nM | 70 nM |  |
| 2-(((2S,3R,4S,5R,6R)-3,5-Dihydroxy-6-(hydroxymethyl)-4-(4-(3,4,5-trifluorophenyl)-1H-1,2,3-triazol-1-yl)tetrahydro-2H-pyran-2-yl)thio)-2-(4-hydroxy-1-methylpiperidin-4-yl)-N-isobutyl-N-methylacetamide [Example 2.40.200.] | 190 nM |  | IC50 [1, 5]: 80 nM |
| 2-(((2S,3R,4S,5R,6R)-3,5-Dihydroxy-6-(hydroxymethyl)-4-(4-(3,4,5-trifluorophenyl)-1H-1,2,3-triazol-1-yl)tetrahydro-2H-pyran-2-yl)thio)-N-ethyl-2-(4-hydroxy-1-methylpiperidin-4-yl)-N-methylacetamide [Example 2.40.203.] | 160 nM |  | IC50 [1, 5]: 80 nM |
| CN(C)C(=O)C(S[C@@H]1O[C@H](CO)[C@H](O)[C@H](n2cc(-c3cc(F)c(F)c(F)c3)nn2)[C@H]1O)C1(O)CCC(F)(F)CC1 (mixture of isomers) [Example 2.44.201., 2-(4,4-Difluoro-1-hydroxycyclohexyl)-2-(((2S,3R,4S,5R,6R)-3,5-dihydroxy-6-(hydroxymethyl)-4-(4-(3,4,5-trifluorophenyl)-1H-1,2,3-triazol-1-yl)tetrahydro-2H-pyran-2-yl)thio)-N,N-dimethylacetamide] | 230 nM | 100 nM |  |
| CN(C)C(=O)C(S[C@@H]1O[C@H](CO)[C@H](O)[C@H](n2cc(-c3cc(F)c(F)c(F)c3)nn2)[C@H]1O)C1(O)CCC(F)(F)CC1 (single isomer, unassigned) [Example 2.44.201R.] | 1710 nM | 1330 nM |  |
| CCN(C)C(=O)C(S[C@@H]1O[C@H](CO)[C@H](O)[C@H](n2cc(-c3cccc(F)c3)nn2)[C@H]1O)C1(O)CCOCC1 (stereo partly drawn) [Example 1.41.203., N-Ethyl-2-(((2S,3R,4S,5R,6R)-4-(4-(3-fluorophenyl)-1H-1,2,3-triazol-1-yl)-3,5-dihydroxy-6-(hydroxymethyl)tetrahydro-2H-pyran-2-yl)thio)-2-(4-hydroxytetrahydro-2H-pyran-4-yl)-N-methylacetamide] | 160 nM |  | IC50 ([1]; Table 11, hGal-3, read-out: IC50 (Gal-3 inhibition)): 130 nM |
| CN(C)C(=O)C(S[C@@H]1O[C@H](CO)[C@H](O)[C@H](n2cc(-c3cc(F)c(F)c(F)c3)nn2)[C@H]1O)C(C)(C)O (stereo partly drawn) [Example 2.31.201., 2-(((2S,3R,4S,5R,6R)-3,5-Dihydroxy-6-(hydroxymethyl)-4-(4-(3,4,5-trifluorophenyl)-1H-1,2,3-triazol-1-yl)tetrahydro-2H-pyran-2-yl)thio)-3-hydroxy-N,N,3-trimethylbutanamide] | 1920 nM |  | IC50 [1, 7]: 270 nM |
| CCN(CC)C(=O)C(S[C@@H]1O[C@H](CO)[C@H](O)[C@H](n2cc(-c3cc(F)c(F)c(F)c3)nn2)[C@H]1O)C(C)(C)O (stereo partly drawn) [Example 2.31.202., 2-(((2S,3R,4S,5R,6R)-3,5-Dihydroxy-6-(hydroxymethyl)-4-(4-(3,4,5-trifluorophenyl)-1H-1,2,3-triazol-1-yl)tetrahydro-2H-pyran-2-yl)thio)-N,N-diethyl-3-hydroxy-3-methylbutanamide] | 2770 nM |  | IC50 [1, 7]: 160 nM |
| CCN(C)C(=O)C(S[C@@H]1O[C@H](CO)[C@H](O)[C@H](n2cc(-c3cc(F)c(F)c(F)c3)nn2)[C@H]1O)C(C)(C)O (stereo partly drawn) [Example 2.31.203., 2-(((2S,3R,4S,5R,6R)-3,5-Dihydroxy-6-(hydroxymethyl)-4-(4-(3,4,5-trifluorophenyl)-1H-1,2,3-triazol-1-yl)tetrahydro-2H-pyran-2-yl)thio)-N-ethyl-3-hydroxy-N,3-dimethylbutanamide] | 880 nM |  | IC50 [1, 7]: 210 nM |
| (R)-2-(((2S,3R,4S,5R,6R)-3,5-dihydroxy-6-(hydroxymethyl)-4-(4-(3,4,5-trifluorophenyl)-1H-1,2,3-triazol-1-yl)tetrahydro-2H-pyran-2-yl)thio)-3-hydroxy-3-methyl-1-(3-methylazetidin-1-yl)butan-1-one [Example 2.31.205R.] | 20000 nM |  |  |

Continued, in another order:

| IC50 [2] | IC50 [1, 4] | Molecule | further results |
| --- | --- | --- | --- |
| 350 nM | 130 nM | 2-(4,4-Difluoro-1-hydroxycyclohexyl)-2-(((2S,3R,4S,5R,6R)-3,5-dihydroxy-6-(hydroxymethyl)-4-(4-(3,4,5-trifluorophenyl)-1H-1,2,3-triazol-1-yl)tetrahydro-2H-pyran-2-yl)thio)-N-(2-fluoro-2-methylpropyl)-N-methylacetamide [Example 2.44.222.] |  |
| 140 nM | 60 nM | 2-(4,4-Difluoro-1-hydroxycyclohexyl)-2-(((2S,3R,4S,5R,6R)-3,5-dihydroxy-6-(hydroxymethyl)-4-(4-(3,4,5-trifluorophenyl)-1H-1,2,3-triazol-1-yl)tetrahydro-2H-pyran-2-yl)thio)-N-ethyl-N-methylacetamide [Example 2.44.203.] |  |
| 120 nM | 50 nM | CN(CC1(F)CCCC1)C(=O)C(S[C@@H]1O[C@H](CO)[C@H](O)[C@H](n2cc(-c3cc(F)c(F)c(F)c3)nn2)[C@H]1O)C1(O)CCC(F)(F)CC1 (mixture of isomers) [Example 2.44.223., 2-(4,4-Difluoro-1-hydroxycyclohexyl)-2-(((2S,3R,4S,5R,6R)-3,5-dihydroxy-6-(hydroxymethyl)-4-(4-(3,4,5-trifluorophenyl)-1H-1,2,3-triazol-1-yl)tetrahydro-2H-pyran-2-yl)thio)-N-((1-fluorocyclopentyl)methyl)-N-methylacetamide] |  |
| 110 nM |  | CCN(C)C(=O)C(S[C@@H]1O[C@H](CO)[C@H](O)[C@H](n2cc(-c3cc(F)c(F)c(F)c3)nn2)[C@H]1O)C1(O)CCN(S(C)(=O)=O)CC1 (mixture of isomers) [Example 2.47.203., 2-(((2S,3R,4S,5R,6R)-3,5-Dihydroxy-6-(hydroxymethyl)-4-(4-(3,4,5-trifluorophenyl)-1H-1,2,3-triazol-1-yl)tetrahydro-2H-pyran-2-yl)thio)-N-ethyl-2-(4-hydroxy-1-(methylsulfonyl)piperidin-4-yl)-N-methylacetamide] | IC50 [1, 6]: 30 nM |
| 180 nM | 40 nM | CN(C)C(=O)C(S[C@@H]1O[C@H](CO)[C@H](O)[C@H](n2cc(-c3cc(F)c(F)c(F)c3)nn2)[C@H]1O)C1(O)CCC(F)(F)CC1 (single isomer, unassigned) [Example 2.44.201S.] |  |
| 30 nM |  | CCN(C)C(=O)C(S[C@@H]1O[C@H](CO)[C@H](O)[C@H](n2cc(-c3cc(F)c(F)c(F)c3)nn2)[C@H]1O)C1(O)CCN(S(C)(=O)=O)CC1 (single isomer, unassigned) [Example 2.47.203S.] | IC50 [1, 6]: 10 nM |
| 220 nM |  | Cc1cc(-c2cn([C@H]3[C@@H](O)[C@@H](CO)O[C@@H](S[C@@H](C(=O)N(C)C4CC4)C4(O)CCC(F)(F)CC4)[C@@H]3O)nn2)cnc1F [Example 21.44.221R., (R)-N-Cyclopropyl-2-(4,4-difluoro-1-hydroxycyclohexyl)-2-(((2S,3R,4S,5R,6R)-4-(4-(6-fluoro-5-methylpyridin-3-yl)-1H-1,2,3-triazol-1-yl)-3,5-dihydroxy-6-(hydroxymethyl)tetrahydro-2H-pyran-2-yl)thio)-N-methylacetamide] |  |
| 70 nM |  | Cc1cc(-c2cn([C@H]3[C@@H](O)[C@@H](CO)O[C@@H](S[C@H](C(=O)N(C)C4CC4)C4(O)CCC(F)(F)CC4)[C@@H]3O)nn2)cnc1F [Example 21.44.221S., (S)-N-Cyclopropyl-2-(4,4-difluoro-1-hydroxycyclohexyl)-2-(((2S,3R,4S,5R,6R)-4-(4-(6-fluoro-5-methylpyridin-3-yl)-1H-1,2,3-triazol-1-yl)-3,5-dihydroxy-6-(hydroxymethyl)tetrahydro-2H-pyran-2-yl)thio)-N-methylacetamide] |  |

Reference: patent US12410208B2, “(2-acetamidyl)thio-beta-D-galactopyranoside derivatives” (Idorsia Pharmaceuticals Ltd, priority 2020, dated 2025)
